Where two headings read alike, the source gives them in different places.
What was measured:
Experiment in all cases: biochemical
Set-up in all cases: DiscoveRx KINOMEscan active site-directed competition binding; percent of control kinase bound to immobilised ligand
FGFR2 = FGFR2 (Homo sapiens, UniProt P21802)
CSNK1G2 = CSNK1G2 (Homo sapiens, UniProt P78368)
MAP4K4 = MAP4K4 (Homo sapiens, UniProt O95819)
PIK3CA(E545K) = PIK3CA(E545K) (Homo sapiens, UniProt P42336, E545K)
GRK7 = target: T1, GRK7 (Homo sapiens, UniProt Q8WTQ7)
T1 sequence (Q8WTQ7 1-553): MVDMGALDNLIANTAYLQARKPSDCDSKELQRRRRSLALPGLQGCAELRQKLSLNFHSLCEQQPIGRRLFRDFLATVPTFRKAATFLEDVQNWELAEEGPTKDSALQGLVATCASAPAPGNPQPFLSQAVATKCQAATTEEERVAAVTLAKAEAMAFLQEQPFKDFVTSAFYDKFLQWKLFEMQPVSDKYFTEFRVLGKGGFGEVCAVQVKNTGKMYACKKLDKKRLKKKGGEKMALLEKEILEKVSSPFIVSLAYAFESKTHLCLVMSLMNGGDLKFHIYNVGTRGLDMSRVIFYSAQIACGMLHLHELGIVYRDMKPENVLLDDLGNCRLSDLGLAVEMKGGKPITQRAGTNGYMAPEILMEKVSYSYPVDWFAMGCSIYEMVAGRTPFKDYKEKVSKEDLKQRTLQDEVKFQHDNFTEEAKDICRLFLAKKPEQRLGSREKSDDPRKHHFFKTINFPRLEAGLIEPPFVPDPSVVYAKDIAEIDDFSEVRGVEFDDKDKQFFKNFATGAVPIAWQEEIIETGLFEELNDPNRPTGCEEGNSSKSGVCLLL

CAMK2G = CAMK2G (Homo sapiens, UniProt Q13555)
Sequence of CAMK2G (Q13555 whole entry): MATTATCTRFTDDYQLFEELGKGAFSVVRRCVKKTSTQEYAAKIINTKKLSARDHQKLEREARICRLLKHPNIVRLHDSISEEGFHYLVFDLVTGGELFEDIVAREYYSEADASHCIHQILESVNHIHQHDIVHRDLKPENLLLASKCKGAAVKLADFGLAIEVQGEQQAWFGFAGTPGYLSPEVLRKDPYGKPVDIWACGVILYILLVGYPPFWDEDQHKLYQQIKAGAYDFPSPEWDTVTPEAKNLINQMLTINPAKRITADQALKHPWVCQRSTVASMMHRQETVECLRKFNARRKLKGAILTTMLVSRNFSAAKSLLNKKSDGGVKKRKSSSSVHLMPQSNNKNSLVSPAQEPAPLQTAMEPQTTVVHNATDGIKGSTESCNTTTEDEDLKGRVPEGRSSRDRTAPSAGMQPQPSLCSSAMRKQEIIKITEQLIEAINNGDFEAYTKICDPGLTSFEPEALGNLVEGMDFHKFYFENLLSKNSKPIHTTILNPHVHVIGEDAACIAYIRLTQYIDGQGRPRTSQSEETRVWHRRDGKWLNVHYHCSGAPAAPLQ

LATS2 = target: T2, LATS2 (Homo sapiens, UniProt Q9NRM7)
T2 sequence (Q9NRM7 1-1088): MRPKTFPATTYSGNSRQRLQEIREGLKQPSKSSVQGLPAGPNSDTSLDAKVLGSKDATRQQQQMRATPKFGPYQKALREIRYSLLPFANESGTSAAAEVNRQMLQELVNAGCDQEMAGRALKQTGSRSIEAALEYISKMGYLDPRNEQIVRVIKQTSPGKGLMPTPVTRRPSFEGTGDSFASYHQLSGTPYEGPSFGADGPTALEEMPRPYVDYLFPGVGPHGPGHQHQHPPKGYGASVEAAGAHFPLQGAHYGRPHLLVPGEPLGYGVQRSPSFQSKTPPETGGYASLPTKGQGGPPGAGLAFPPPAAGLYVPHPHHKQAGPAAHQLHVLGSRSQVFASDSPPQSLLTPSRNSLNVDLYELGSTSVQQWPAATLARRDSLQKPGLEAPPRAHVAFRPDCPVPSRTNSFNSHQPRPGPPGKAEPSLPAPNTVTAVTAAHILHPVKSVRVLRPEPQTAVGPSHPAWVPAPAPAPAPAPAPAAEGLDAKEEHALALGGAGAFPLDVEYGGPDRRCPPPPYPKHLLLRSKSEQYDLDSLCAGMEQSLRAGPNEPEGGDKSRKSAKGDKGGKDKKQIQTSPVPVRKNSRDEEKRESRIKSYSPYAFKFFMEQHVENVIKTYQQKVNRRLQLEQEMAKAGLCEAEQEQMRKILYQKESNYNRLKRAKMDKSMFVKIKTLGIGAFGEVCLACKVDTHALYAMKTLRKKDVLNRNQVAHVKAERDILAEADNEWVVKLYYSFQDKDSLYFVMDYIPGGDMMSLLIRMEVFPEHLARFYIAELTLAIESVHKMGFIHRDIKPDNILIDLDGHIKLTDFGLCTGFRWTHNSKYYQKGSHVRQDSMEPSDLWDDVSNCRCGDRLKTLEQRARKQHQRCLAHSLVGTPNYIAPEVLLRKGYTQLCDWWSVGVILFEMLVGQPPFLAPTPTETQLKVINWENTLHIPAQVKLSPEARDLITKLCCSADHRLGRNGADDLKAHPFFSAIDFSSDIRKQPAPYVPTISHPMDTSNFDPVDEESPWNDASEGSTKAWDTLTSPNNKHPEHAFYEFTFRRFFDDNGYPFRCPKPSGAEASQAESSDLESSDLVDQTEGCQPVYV

[1] = read-out: Talazoparib (BMN 673) / %Ctrl @ 10000nM
[2] = read-out: Olaparib / %Ctrl @ 10000nM
[3] = read-out: Niraparib (MK-4827) / %Ctrl @ 10000nM
[4] = read-out: Rucaparib / %Ctrl @ 10000nM, binding competition, % of control

Sequence of MAP4K4 (O95819 whole entry): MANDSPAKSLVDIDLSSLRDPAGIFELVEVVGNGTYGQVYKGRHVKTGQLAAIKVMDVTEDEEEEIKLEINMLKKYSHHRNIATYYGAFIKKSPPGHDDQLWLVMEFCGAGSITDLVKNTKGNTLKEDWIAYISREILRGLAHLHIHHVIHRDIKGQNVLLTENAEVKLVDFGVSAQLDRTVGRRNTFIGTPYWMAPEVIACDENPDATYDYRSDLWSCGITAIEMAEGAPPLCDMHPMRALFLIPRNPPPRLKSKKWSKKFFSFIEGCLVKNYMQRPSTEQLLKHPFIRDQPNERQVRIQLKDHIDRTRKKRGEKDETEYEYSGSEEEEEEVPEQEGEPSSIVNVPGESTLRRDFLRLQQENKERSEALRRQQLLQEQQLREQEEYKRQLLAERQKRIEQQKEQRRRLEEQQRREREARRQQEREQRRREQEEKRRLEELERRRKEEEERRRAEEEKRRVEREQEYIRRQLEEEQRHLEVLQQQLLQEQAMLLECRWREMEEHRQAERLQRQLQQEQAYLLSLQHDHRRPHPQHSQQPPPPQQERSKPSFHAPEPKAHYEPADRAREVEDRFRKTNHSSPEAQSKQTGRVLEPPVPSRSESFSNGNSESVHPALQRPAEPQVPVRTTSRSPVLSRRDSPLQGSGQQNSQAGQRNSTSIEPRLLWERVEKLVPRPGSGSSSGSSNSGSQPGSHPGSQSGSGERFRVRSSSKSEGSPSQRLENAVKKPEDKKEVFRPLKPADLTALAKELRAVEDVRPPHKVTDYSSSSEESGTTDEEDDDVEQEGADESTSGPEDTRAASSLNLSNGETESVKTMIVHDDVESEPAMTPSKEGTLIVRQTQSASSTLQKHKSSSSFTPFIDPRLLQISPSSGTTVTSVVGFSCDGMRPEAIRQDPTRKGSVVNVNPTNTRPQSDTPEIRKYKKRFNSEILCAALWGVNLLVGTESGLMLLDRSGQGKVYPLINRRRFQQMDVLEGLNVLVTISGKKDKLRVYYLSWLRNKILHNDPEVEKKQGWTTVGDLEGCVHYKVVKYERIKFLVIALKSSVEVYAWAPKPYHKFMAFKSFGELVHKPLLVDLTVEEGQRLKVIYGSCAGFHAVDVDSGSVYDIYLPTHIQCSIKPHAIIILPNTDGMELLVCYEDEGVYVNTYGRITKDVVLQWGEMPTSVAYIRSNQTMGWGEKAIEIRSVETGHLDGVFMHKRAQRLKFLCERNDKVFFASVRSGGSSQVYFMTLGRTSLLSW
Sequence of FGFR2 (P21802 whole entry): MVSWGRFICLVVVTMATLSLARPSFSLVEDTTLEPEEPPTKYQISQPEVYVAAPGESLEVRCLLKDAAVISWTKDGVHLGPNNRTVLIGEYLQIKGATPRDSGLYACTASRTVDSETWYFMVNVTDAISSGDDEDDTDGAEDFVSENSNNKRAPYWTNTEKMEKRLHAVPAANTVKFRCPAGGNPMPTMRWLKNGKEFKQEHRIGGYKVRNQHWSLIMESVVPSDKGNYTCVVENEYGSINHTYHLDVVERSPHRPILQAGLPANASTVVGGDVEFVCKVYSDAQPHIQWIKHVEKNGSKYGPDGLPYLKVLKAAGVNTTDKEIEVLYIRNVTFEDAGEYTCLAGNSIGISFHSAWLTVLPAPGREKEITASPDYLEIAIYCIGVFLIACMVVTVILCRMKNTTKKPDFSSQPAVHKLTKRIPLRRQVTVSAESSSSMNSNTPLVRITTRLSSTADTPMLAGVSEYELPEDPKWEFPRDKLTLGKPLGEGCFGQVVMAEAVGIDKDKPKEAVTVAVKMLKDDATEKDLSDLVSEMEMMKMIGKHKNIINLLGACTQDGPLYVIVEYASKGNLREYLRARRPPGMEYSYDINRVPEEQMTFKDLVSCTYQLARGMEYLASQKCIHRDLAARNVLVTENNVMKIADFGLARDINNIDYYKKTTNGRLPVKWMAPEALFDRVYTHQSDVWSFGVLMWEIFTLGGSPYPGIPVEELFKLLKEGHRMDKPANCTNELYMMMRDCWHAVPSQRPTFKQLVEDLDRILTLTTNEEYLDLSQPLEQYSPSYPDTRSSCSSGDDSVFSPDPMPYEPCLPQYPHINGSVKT
Sequence of CSNK1G2 (P78368 whole entry): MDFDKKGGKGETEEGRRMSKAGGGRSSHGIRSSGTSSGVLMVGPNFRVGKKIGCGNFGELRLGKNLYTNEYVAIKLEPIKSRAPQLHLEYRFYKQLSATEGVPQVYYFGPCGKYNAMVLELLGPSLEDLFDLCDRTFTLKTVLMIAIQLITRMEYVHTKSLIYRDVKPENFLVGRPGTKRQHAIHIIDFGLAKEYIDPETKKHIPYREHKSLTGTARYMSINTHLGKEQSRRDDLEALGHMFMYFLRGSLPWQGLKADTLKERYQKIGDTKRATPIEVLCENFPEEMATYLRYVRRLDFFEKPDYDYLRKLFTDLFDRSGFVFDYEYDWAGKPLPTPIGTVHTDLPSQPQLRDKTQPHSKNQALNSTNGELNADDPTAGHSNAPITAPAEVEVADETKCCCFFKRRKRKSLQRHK
Sequence of PIK3CA(E545K) (P42336 whole entry E545K): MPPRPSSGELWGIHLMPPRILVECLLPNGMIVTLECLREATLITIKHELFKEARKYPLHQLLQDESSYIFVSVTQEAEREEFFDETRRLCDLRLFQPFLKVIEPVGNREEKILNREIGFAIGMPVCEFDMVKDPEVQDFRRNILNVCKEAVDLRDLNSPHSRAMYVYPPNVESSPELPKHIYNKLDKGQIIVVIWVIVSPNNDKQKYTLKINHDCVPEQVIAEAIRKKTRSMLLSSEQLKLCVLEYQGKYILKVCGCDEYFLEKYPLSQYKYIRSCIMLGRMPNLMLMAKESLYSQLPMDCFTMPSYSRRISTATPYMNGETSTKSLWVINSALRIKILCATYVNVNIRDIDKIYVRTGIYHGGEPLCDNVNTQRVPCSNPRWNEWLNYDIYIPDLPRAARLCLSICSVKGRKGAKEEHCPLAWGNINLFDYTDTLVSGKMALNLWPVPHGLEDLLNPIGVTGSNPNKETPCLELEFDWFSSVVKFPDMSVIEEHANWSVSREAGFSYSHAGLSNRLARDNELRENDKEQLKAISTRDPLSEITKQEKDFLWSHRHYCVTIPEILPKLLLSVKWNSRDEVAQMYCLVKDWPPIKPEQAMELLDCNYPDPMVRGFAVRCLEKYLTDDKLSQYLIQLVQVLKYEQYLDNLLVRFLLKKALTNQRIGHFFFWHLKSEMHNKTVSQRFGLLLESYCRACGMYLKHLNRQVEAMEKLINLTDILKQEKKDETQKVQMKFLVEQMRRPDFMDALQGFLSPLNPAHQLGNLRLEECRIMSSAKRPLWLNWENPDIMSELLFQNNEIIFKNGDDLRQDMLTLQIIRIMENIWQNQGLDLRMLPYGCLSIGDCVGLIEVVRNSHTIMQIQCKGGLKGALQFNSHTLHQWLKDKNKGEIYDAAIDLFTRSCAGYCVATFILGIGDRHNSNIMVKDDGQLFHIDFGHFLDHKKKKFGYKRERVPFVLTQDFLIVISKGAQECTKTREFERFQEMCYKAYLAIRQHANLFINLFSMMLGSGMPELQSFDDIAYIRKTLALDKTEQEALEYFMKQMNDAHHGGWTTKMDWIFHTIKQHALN

Compound: Cn1ncnc1[C@H]1c2n[nH]c(=O)c3cc(F)cc(c23)N[C@@H]1c1ccc(F)cc1 [Talazoparib]
- percent of control binding at 10 µM (FGFR2; [1]): 100%
- percent of control binding at 10 µM (CSNK1G2; [1]): 91%
- percent of control binding at 10 µM (MAP4K4; [1]): 100%
- percent of control binding at 10 µM (PIK3CA(E545K); [1]): 56%
- percent of control binding at 10 µM (GRK7; [1]): 100%
- percent of control binding at 10 µM (CAMK2G; [1]): 95%
- percent of control binding at 10 µM (LATS2; [1]): 82%

Compound: O=C(c1cc(Cc2n[nH]c(=O)c3ccccc23)ccc1F)N1CCN(C(=O)C2CC2)CC1 [Olaparib]
- percent of control binding at 10 µM (FGFR2; [2]): 100%
- percent of control binding at 10 µM (CSNK1G2; [2]): 81%
- percent of control binding at 10 µM (MAP4K4; [2]): 100%
- percent of control binding at 10 µM (PIK3CA(E545K); [2]): 86%
- percent of control binding at 10 µM (GRK7; [2]): 85%
- percent of control binding at 10 µM (CAMK2G; [2]): 100%
- percent of control binding at 10 µM (LATS2; [2]): 77%

Compound: NC(=O)c1cccc2cn(-c3ccc([C@@H]4CCCNC4)cc3)nc12 [Niraparib]
- percent of control binding at 10 µM (FGFR2; [3]): 100%
- percent of control binding at 10 µM (CSNK1G2; [3]): 79%
- percent of control binding at 10 µM (MAP4K4; [3]): 94%
- percent of control binding at 10 µM (PIK3CA(E545K); [3]): 95%
- percent of control binding at 10 µM (GRK7; [3]): 88%
- percent of control binding at 10 µM (CAMK2G; [3]): 95%
- percent of control binding at 10 µM (LATS2; [3]): 4.2%

Compound: CNCc1ccc(-c2[nH]c3cc(F)cc4c3c2CCNC4=O)cc1 [Rucaparib]
- percent of control binding at 10 µM (FGFR2; [4]): 99%
- percent of control binding at 10 µM (CSNK1G2; [4]): 89%
- percent of control binding at 10 µM (MAP4K4; [4]): 82%
- percent of control binding at 10 µM (PIK3CA(E545K); [4]): 79%
- percent of control binding at 10 µM (GRK7; [4]): 48%
- percent of control binding at 10 µM (CAMK2G; [4]): 83%
- percent of control binding at 10 µM (LATS2; [4]): 48%
